The EC50 is the concentration needed to bring the measured effect to its halfway point.

The values below come from US20240018133A1, “MODULATORS OF THE INTEGRATED STRESS PATHWAY” (Calico Life Sciences LLC, priority 2019, published 2024).

This assay concerns ATF4 luciferase reporter (human full-length ATF4 5'-UTR fused to firefly luciferase) in HEK293T cells. Description: ATF4-Luc assay (in vitro model of VWMD): HEK293T cells carrying ATF4 luciferase reporter, tunicamycin-treated. In kind it is cell-based. Particulars: Homo sapiens, HEK-293T, 1 μg/mL tunicamycin, 7 hours, One Glo luminescence. A digest of the protocol:
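Stable HEK293T line with human ATF4 5′-UTR–firefly luciferase reporter treated with 1 μg/mL tunicamycin plus 200 nM compound for 7 h. Luminescence read; EC50 derived.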
For the molecule `O=C(COc1ccc(Cl)c(F)c1)NC12CC(NC(=O)c3cc(=O)c4cc(F)cc(F)c4o3)(C1)C2` [Compound 292, N-{3-[2-(4-chloro-3-fluorophenoxy)acetamido]bicyclo[1.1.1]pentan-1-yl}-6,8-difluoro-4-oxo-4H-1-benzopyran-2-carboxamide], the EC50 was 50 to 250 nM.

For the molecule `O=C(NC12CC(NC(=O)[C@H]3C[C@@H](O)c4cc(Cl)ccc4O3)(C1)C2)c1cnn(-c2ccc(Cl)c(F)c2)c1` [Compound 391, 1-(4-chloro-3-fluorophenyl)-N-(3-{[(2R,4R)-6-chloro-4-hydroxy-3,4-dihydro-2H-1-benzopyran-2-carbonyl]amino}bicyclo[1.1.1]pentan-1-yl)-1H-pyrazole-4-carboxamide], the EC50 was less than 10 nM.

As to `O=C(COc1ccc(Cl)c(F)c1)NC12CC(NC(=O)C3CN(C(=O)c4ccc(S(=O)(=O)F)cc4)c4cc(Cl)ccc4O3)(C1)C2` (centres unmarked) [Compound 147, 4-[6-chloro-2-({3-[2-(4-chloro-3-fluorophenoxy)acetamido]bicyclo[1.1.1]pentan-1-yl}carbamoyl)-2,3-dihydro-4H-1,4-benzoxazine-4-carbonyl]benzene-1-sulfonyl fluoride], the EC50 lay in the range of 500 to 2000 nM.

Consider `O=C(COc1ccc(Cl)c(F)c1)NC12CC(NC(=O)[C@H]3CN(CC4(O)CC4)c4cc(Cl)ccc4O3)(C1)C2` [Compound 325, (2R)-6-chloro-N-{3-[2-(4-chloro-3-fluorophenoxy)acetamido]bicyclo[1.1.1]pentan-1-yl}-4-[(1-hydroxycyclopropyl)methyl]-3,4-dihydro-2H-1,4-benzoxazine-2-carboxamide], for which the concentration giving a half-maximal response (EC50) was 10 to 50 nM.

Regarding `O=C(NC12CC(NC(=O)[C@H]3C[C@@H](O)c4cc(Cl)ccc4O3)(C1)C2)c1ccccn1` [Compound 386, N-(3-{[(2R,4R)-6-chloro-4-hydroxy-3,4-dihydro-2H-1-benzopyran-2-carbonyl]amino}bicyclo[1.1.1]pentan-1-yl)pyridine-2-carboxamide], the EC50 lay within 50 to 250 nM.

`C[C@]1(C(=O)NC23CC(NC(=O)COc4ccc(Cl)c(F)c4)(C2)C3)Oc2ccc(Cl)cc2C1O` (stereo partly drawn) [Compound 262, (2S)-5-chloro-N-{3-[2-(4-chloro-3-fluorophenoxy)acetamido]bicyclo[1.1.1]pentan-1-yl}-3-hydroxy-2-methyl-2,3-dihydro-1-benzofuran-2-carboxamide]: the concentration giving a half-maximal response (EC50) was more than 2000 nM.

On to `O=C(COc1ccc(Cl)c(F)c1)NC12CC(NC(=O)[C@H]3C[C@H](NC4(CO)CC4)c4cc(Cl)ccc4O3)(C1)C2` (racemic) [Compound 343, rac-(2R,4S)-6-chloro-N-{3-[2-(4-chloro-3-fluorophenoxy)acetamido]bicyclo[1.1.1]pentan-1-yl}-4-{[1-(hydroxymethyl)cyclopropyl]amino}-3,4-dihydro-2H-1-benzopyran-2-carboxamide], for which the EC50 lay in the range of 10 to 50 nM.

As to `O=C(COc1ccc(Cl)c(F)c1)NC12CC(NC(=O)c3cc(=O)c4cc(O)ccc4o3)(C1)C2` [Compound 346, N-{3-[2-(4-chloro-3-fluorophenoxy)acetamido]bicyclo[1.1.1]pentan-1-yl}-6-hydroxy-4-oxo-4H-1-benzopyran-2-carboxamide], the concentration giving a half-maximal response (EC50) lay in the range of 500 to 2000 nM.

Regarding `O=C(NC12CCC(NC(=O)[C@H]3CC(=O)c4cc(Cl)ccc4O3)(CC1)C[C@@H]2O)c1cnc(C(F)F)cn1` [Compound 352, N-[(2S)-4-{[(2R)-6-chloro-4-oxo-3,4-dihydro-2H-1-benzopyran-2-carbonyl]amino}-2-hydroxybicyclo[2.2.2]octan-1-yl]-5-(difluoromethyl)pyrazine-2-carboxamide], the half-maximal effective concentration (EC50) was 500 to 2000 nM.

On to `O=C(COc1ccc(Cl)c(F)c1)NC12CCC(NC(=O)[C@H]3C[C@H](O)c4cc(Cl)ccc4O3)(C1)C2` [Compound 260, (2R,4S)-6-chloro-N-{4-[2-(4-chloro-3-fluorophenoxy)acetamido]bicyclo[2.1.1]hexan-1-yl}-4-hydroxy-3,4-dihydro-2H-1-benzopyran-2-carboxamide], for which the EC50 is less than 10 nM.

On to `O=C(NC12CCC(NC(=O)[C@@H]3C[C@H](O)c4cc(Cl)ccc4O3)(CC1)CC2)c1ccc(OC(F)(F)F)cn1` [Compound 362, N-(4-{[(2S,4S)-6-chloro-4-hydroxy-3,4-dihydro-2H-1-benzopyran-2-carbonyl]amino}bicyclo[2.2.2]octan-1-yl)-5-(trifluoromethoxy)pyridine-2-carboxamide], for which the EC50 lay in the range of 500 to 2000 nM.

`O=C(COc1ccc(Cl)c(F)c1)N[C@@H]1C[C@@H]2O[C@H]1C[C@H]2NC(=O)[C@@H]1C[C@H](O)c2cc(Cl)ccc2O1` (racemic) [Compound 372, (2S,4S)-6-chloro-N-{(1RS,2SR,4RS,5SR)-5-[2-(4-chloro-3-fluorophenoxy)acetamido]-7-oxabicyclo[2.2.1]heptan-2-yl}-4-hydroxy-3,4-dihydro-2H-1-benzopyran-2-carboxamide]: the EC50 lay in the range of 10 to 50 nM.

For `COc1ncc(OCC(=O)NC23CC(NC(=O)[C@H]4C[C@@H](O)c5cc(Cl)ccc5O4)(C2)C3)cn1` [Compound 227, (2R,4R)-6-chloro-4-hydroxy-N-(3-{2-[(2-methoxypyrimidin-5-yl)oxy]acetamido}bicyclo[1.1.1]pentan-1-yl)-3,4-dihydro-2H-1-benzopyran-2-carboxamide], the EC50 lay within 50 to 250 nM.

Consider `O=C(COc1ccc(Cl)c(F)c1)NC12CCC(NC(=O)C3CC(=O)c4cc(Cl)ccc4O3)(CC1)NC2=O` (centres unmarked) [Compound 363, 6-chloro-N-{4-[2-(4-chloro-3-fluorophenoxy)acetamido]-3-oxo-2-azabicyclo[2.2.2]octan-1-yl}-4-oxo-3,4-dihydro-2H-1-benzopyran-2-carboxamide], for which the EC50 lay within 10 to 50 nM.

On to `O=C(NC12CCC(NC(=O)[C@H]3CC(=O)c4cc(Cl)ccc4O3)(CC1)CC2)c1ccc(OC(F)(F)F)cn1` [Compound 357, N-(4-{[(2R)-6-chloro-4-oxo-3,4-dihydro-2H-1-benzopyran-2-carbonyl]amino}bicyclo[2.2.2]octan-1-yl)-5-(trifluoromethoxy)pyridine-2-carboxamide], for which the concentration for a half-maximal effect (EC50) is 500 to 2000 nM.

Turning to `O=C(COc1ccc(Cl)c(F)c1)NC12CC(NC(=O)C3CC(O)c4ccc(C(F)(F)F)cc4O3)(C1)C2` (centres unmarked) [Compound 243, N-{3-[2-(4-chloro-3-fluorophenoxy)acetamido]bicyclo[1.1.1]pentan-1-yl}-4-hydroxy-7-(trifluoromethyl)-3,4-dihydro-2H-1-benzopyran-2-carboxamide], the EC50 is less than 10 nM.

Turning to `O=C(COc1ccc(Cl)c(F)c1)NC12CC(NC(=O)c3cc(=O)c4cc(F)c(Cl)cc4o3)(C1)C2` [Compound 232, 7-chloro-N-{3-[2-(4-chloro-3-fluorophenoxy)acetamido]bicyclo[1.1.1]pentan-1-yl}-6-fluoro-4-oxo-4H-1-benzopyran-2-carboxamide], the EC50 was less than 10 nM.

With `O=C(COc1ccc(Cl)c(F)c1)NC12CC(NC(=O)C3Cc4cc(Cl)ccc4N3)(C1)C2` (centres unmarked) [Compound 261, 5-chloro-N-{3-[2-(4-chloro-3-fluorophenoxy)acetamido]bicyclo[1.1.1]pentan-1-yl}-2,3-dihydro-1H-indole-2-carboxamide], the EC50 was in the range of 50 to 250 nM.

Turning to `O=C(NC12CC(NC(=O)[C@H]3C[C@@H](O)c4cc(Cl)ccc4O3)(C1)C2)c1cnc(C2CN(CC(F)(F)F)C2)o1` [Compound 388, N-(3-{[(2R,4R)-6-chloro-4-hydroxy-3,4-dihydro-2H-1-benzopyran-2-carbonyl]amino}bicyclo[1.1.1]pentan-1-yl)-2-[1-(2,2,2-trifluoroethyl)azetidin-3-yl]-1,3-oxazole-5-carboxamide], the EC50 lay within 250 to 500 nM.

As to `O=C(NC12CCC(NC(=O)[C@H]3C[C@@H](O)c4cc(Cl)ccc4O3)(C1)C2)c1ccc(C(F)(F)F)cc1` [Compound 374, (2R,4R)-6-chloro-4-hydroxy-N-{4-[4-(trifluoromethyl)benzamido]bicyclo[2.1.1]hexan-1-yl}-3,4-dihydro-2H-1-benzopyran-2-carboxamide], the EC50 lay in the range of 250 to 500 nM.

Regarding `O=C(COc1ccc(Cl)c(F)c1)NC12CC(NC(=O)[C@@H]3CC(=O)c4cc(Cl)ccc4O3)(C1)C2` [Compound 224, (2S)-6-chloro-N-{3-[2-(4-chloro-3-fluorophenoxy)acetamido]bicyclo[1.1.1]pentan-1-yl}-4-oxo-3,4-dihydro-2H-1-benzopyran-2-carboxamide], the EC50 was less than 10 nM.

As to `O=C(COc1ccc(Cl)c(Cl)c1)NC12CC(NC(=O)[C@@H]3CC(=O)c4cc(F)c(F)cc4O3)(C1)C2` [Compound 342, (2S)—N-{3-[2-(3,4-dichlorophenoxy)acetamido]bicyclo[1.1.1]pentan-1-yl}-6,7-difluoro-4-oxo-3,4-dihydro-2H-1-benzopyran-2-carboxamide], the EC50 was in the range of 10 to 50 nM.

Take `O=C(COc1ccc(Cl)cn1)NC12CC(NC(=O)[C@H]3CC(=O)c4cc(Cl)ccc4O3)(C1)C2` [Compound 331, (2R)-6-chloro-N-(3-{2-[(5-chloropyridin-2-yl)oxy]acetamido}bicyclo[1.1.1]pentan-1-yl)-4-oxo-3,4-dihydro-2H-1-benzopyran-2-carboxamide]: the EC50 lay in the range of 50 to 250 nM.

As to `O=C(COc1ccc(Cl)c(F)c1)NC12CCC(NC(=O)C3CC(=O)c4cc(Cl)ccc4O3)(CC1)CC2` (centres unmarked) [Compound 326, 6-chloro-N-{4-[2-(4-chloro-3-fluorophenoxy)acetamido]bicyclo[2.2.2]octan-1-yl}-4-oxo-3,4-dihydro-2H-1-benzopyran-2-carboxamide], the EC50 lay within 10 to 50 nM.

For the molecule `O=C(COc1ccc(Cl)c(F)c1)NC12CC(NC(=O)C3CC(O)c4cc(F)ccc4O3)(C1)C2` (centres unmarked) [Compound 300, N-{3-[2-(4-chloro-3-fluorophenoxy)acetamido]bicyclo[1.1.1]pentan-1-yl}-6-fluoro-4-hydroxy-3,4-dihydro-2H-1-benzopyran-2-carboxamide], the EC50 is less than 10 nM.

Turning to `Cc1csc(C(=O)NC23CCC(NC(=O)[C@H]4C[C@@H](O)c5cc(Cl)ccc5O4)(CC2)C[C@@H]3O)n1` [Compound 356, N-[(2S)-4-{[(2R,4R)-6-chloro-4-hydroxy-3,4-dihydro-2H-1-benzopyran-2-carbonyl]amino}-2-hydroxybicyclo[2.2.2]octan-1-yl]-4-methyl-1,3-thiazole-2-carboxamide], the EC50 lay in the range of 50 to 250 nM.
